Measured values taken from patent US8383880B2, “Infertility control of genetically modified fish” (Academia Sinica, priority 2009, dated 2013).

Tests used:
[1] = tested on: AB strain zebrafish embryos; experiment: Tolerable concentration of Mtz for zebrafish (consecutive immersion of embryos); assay type: in vivo; details: for larvae dead: at 5 dpf
Experimental: In order to determine the tolerable concentration of Mtz for zebrafish, AB strain zebrafish embryos at the single-cell stage were incubated at 28° C. in a range of Mtz concentrations (0-20 mM). We observed obvious abnormal development of larvae at 3 days postfertilization (dpf). The larvae were dead at 5 dpf after consecutive immersions in […] Mtz (100%, n=26/26) and 20 mM Mtz (100%, n=30/30). The nonspecific death of the larvae was first observed at 6 dpf after consecutive immersions in 10 mM Mtz (23%, n=7/30). In contrast, we observed that no larvae died after at least 10 dpf of consecutive immersion in 5 mM Mtz (0%, n=30). Therefore, the optimal Mtz concentration used in the present experiment was 5 mM.

Tg(AOS-eGFP:Ntr) = experiment: Fertility assessment, compound transgenic line; assay type: in vivo, zebrafish
Text: (§1) To generate compound transgenic lines, the homozygous transgenic zebrafish of each line, Tg(Asp-eGFP:Ntr), Tg(Odf-eGFP:Ntr), and Tg(Sam-eGFP:Ntr), were then crossed with each other to generate double transgenic fish, Tg(AO-eGFP:Ntr)[Tg(Asp-eGFP:Ntr);Tg(Odf-eGFP:Ntr)], Tg(AS-eGFP:Ntr)[Tg(Asp-eGFP:Ntr);Tg(Sam-eGFP:Ntr)], and Tg(OS-eGFP:Ntr)[Tg(Odf-eGFP:Ntr);Tg(Sam-eGFP:Ntr)] and triple-transgenic fish, Tg(AOS-eGFP:Ntr)[Tg(Asp-eGFP:Ntr; Odf-eGFP:Ntr;Sam-eGFP:Ntr)] for experiments. RT-PCR was performed to test the expression of eGFP:Ntr in the testes of all lines. Animals from each cross were divided into four groups based on genotype. The four groups were then used to assess fertility in response to Met administration.
(§2) Fertility was assessed by pairing each heterozygous transgenic fish with a WT mate. At least 20 transgenic fish were tested for each line, and the numbers of fertile zebrafish were compared with wild-type fish. Each male was assessed with multiple females. Zebrafish were labeled infertile if they were unable to produce offspring over a 4-month period.
(§3) After establishing breeding colonies of these three transgenic lines, Tg(Asp-eGFP:Ntr), Tg(Odf-eGFP:Ntr), and Tg(Sam-eGFP:Ntr), it became clear that the male transgenic fish were at intermediate levels of infertility while the female transgenic fish remained fertile after Met treatment. None of the Met-treated adult males crossed with wild-type females were fully successful in spawning fertilized eggs (Table 1). […] To reach high or full (100%) levels of male infertility in Met-treated transgenic zebrafish lines, we generated compound transgenic lines, Tg(AO-eGFP:Ntr), Tg(AS-eGFP:Ntr), Tg(OS-eGFP:Ntr), and Tg(AOS-eGFP:Ntr) by crossing each other of Tg(Asp-eGFP:Ntr), Tg(Odf-eGFP:Ntr), and Tg(Sam-eGFP:Ntr), then examined male infertility after Met treatment (Table 2). At 4 months of age, Met-treated compound transgenic males had three mediate (76.4%), intermediate high (85.7%), high (95.0%), and full (100%) levels of infertility for Tg(OS-eGFP:Ntr), Tg(AO-eGFP:Ntr), Tg(AS-eGFP:Ntr), and Tg(AOS-eGFP:Ntr), respectively. Met-treated compound transgenic females crossed with wild-type zebrafish remained fertile. No gross abnormalities were apparent in any of the Met-untreated compound transgenic zebrafish lines or Met-treated double transgenic females.

Tg(OS-eGFP:Ntr) = experiment: Fertility assessment, compound transgenic line; assay type: in vivo, zebrafish; details: Tg(OS-EGFP:Ntr) females, 5 mM Met every other day for 1 week
Text: as §1, §2, §3

Tg(AO-eGFP:Ntr) = experiment: Fertility assessment, compound transgenic line; assay type: in vivo, zebrafish; details: Tg(AO-EGFP:Ntr) females, 5 mM Met every other day for 1 week
Text: as §1, §2, §3

Tg(AS-eGFP:Ntr) = experiment: Fertility assessment, compound transgenic line; assay type: in vivo, zebrafish; details: Tg(AS-EGFP:Ntr) females, 5 mM Met every other day for 1 week
Text: as §1, §2, §3

[2] = tested on: 14 dpf transgenic embryos; experiment: Metronidazole dependent cell ablation, dose response in ablating gonad; assay type: in vivo, zebrafish; details: 5 mM Met, 14 dpf larvae
Experimental: Metronidazole (Met, M3761, Sigma) was dissolved in a standard zebrafish embryo medium with vigorous agitation. Embryos were incubated at 28° C. in the dark, and 14-21 dpf transgenic embryos were used to study the dose response of Met in ablating gonad. In initial studies, 14 dpf embryos were incubated in a range of Met concentrations (1-10 mM).

Tg(Odf-eGFP:Ntr) = experiment: Fertility assessment; assay type: in vivo, zebrafish
Experimental: as §2
(§4) To assess the fertility of Met-treated transgenic zebrafish lines, Tg(Asp-eGFP:Ntr), Tg(Odf-eGFP:Ntr), and Tg(Sam-eGFP:Ntr) lines were crossed with wild-type zebrafish (100-200 eggs per line; three mating pairs per line). The reproductive parameters were compared with wild-type pairs of the same strain (100-200 eggs per five mating pairs). […] In fact, the infertility of Met-treated Tg(Asp-eGFP:Ntr) transgenic males mated with wild-type female fish increased by over 68.0% compared to that of wild-type. […] However, Met-treated transgenic female lines remained fertile as wild-type female.
as §3

Tg(Asp-eGFP:Ntr) = experiment: Fertility assessment; assay type: in vivo, zebrafish
Experimental: as §2, §4, §3

Tg(Sam-eGFP:Ntr) = experiment: Fertility assessment; assay type: in vivo, zebrafish
Experimental: as §2, §4, §3

Wild type = experiment: Fertility assessment; assay type: in vivo, zebrafish; details: 5 mM Met every other day for 1 week; for Female infertility, Met+: Wild type females; for Male infertility, Met+: Wild type males
Experimental: as §2, §4, §3

`Cc1ncc([N+](=O)[O-])n1CCO` [Mtz] was tested, and the larvae dead ([1]; 15 nM Mtz, n=26/26) was 100%, the larvae died ([1]; 5 mM Mtz, at least 10 dpf, n=30) was 0% and the “nonspecific death of the larvae” value ([1]; 10 mM Mtz, first observed at 6 dpf, n=7/30) was 23%. For the same compound, the larvae dead ([1]; 20 mM Mtz, n=30/30) was 100%, the “Female infertility, Met+” value (Tg(AOS-eGFP:Ntr); Tg(AOS-EGFP:Ntr) females, 5 mM Met every other day for 1 week) was 0/38 (0%) and the “lethality in male triple-transgenic fish” value (Tg(AOS-eGFP:Ntr); male Tg(AOS-eGFP:Ntr), 5 mM Met treatment for 1 week, listed as Met) was “occasionally died”. For the same compound, the “Female infertility, Met+” value (Tg(OS-eGFP:Ntr)) was 0/34 (0%), the “Female infertility, Met+” value (Tg(AO-eGFP:Ntr)) was 0/35 (0%) and the “Female infertility, Met+” value (Tg(AS-eGFP:Ntr)) was 0/40 (0%). For the same compound, the “deleterious effects on larvae” value [2] was “no deleterious effects”, the “infertility increased compared to that of wild type” value (Tg(Odf-eGFP:Ntr); Met-treated Tg(Odf-eGFP:Ntr) males mated with wild-type female) was “over 59.1%” and the “Female infertility, Met+” value (Tg(Odf-eGFP:Ntr); Tg(Odf-EGFP:Ntr) females, 5 mM Met every other day for 1 week) was 0/22 (0%). For the same compound, the “Male infertility, Met+” value (Tg(Odf-eGFP:Ntr); Tg(Odf-EGFP:Ntr) males, 5 mM Met every other day for 1 week) was 13/22 (59.1%), the “infertility increased compared to that of wild-type” value (Tg(Asp-eGFP:Ntr); Met-treated Tg(Asp-eGFP:Ntr) males mated with wild-type female) was “over 68.0%” and the “Female infertility, Met+” value (Tg(Asp-eGFP:Ntr); Tg(Asp-EGFP:Ntr) females, 5 mM Met every other day for 1 week) was 0/25 (0%). For the same compound, the “Male infertility, Met+” value (Tg(Asp-eGFP:Ntr); Tg(Asp-EGFP:Ntr) males, 5 mM Met every other day for 1 week) was 17/25 (68.0%), the “infertility increased compared to that of wild type” value (Tg(Sam-eGFP:Ntr); Met-treated Tg(Sam-eGFP:Ntr) males mated with wild-type female) was > 54.1% and the “Female infertility, Met+” value (Tg(Sam-eGFP:Ntr); Tg(Sam-EGFP:Ntr) females, 5 mM Met every other day for 1 week) was 0/24 (0%). The “Male infertility, Met+” value (Tg(Sam-eGFP:Ntr); Tg(Sam-EGFP:Ntr) males, 5 mM Met every other day for 1 week) was 13/24 (54.1%), the “Female infertility, Met+” value (Wild type; Table 1 (n=28)) was 0/28 (0%) and the “Female infertility, Met+” value (Wild type; Table 2 (n=30)) was 0/30 (0%). The “Male infertility, Met+” value (Wild type; Table 1 (n=28)) was 0/28 (0%) and the “Male infertility, Met+” value (Wild type; Table 2 (n=30)) was 0/30 (0%).
